From paper PMC11594534, “Antimicrobial Peptide Pro10-1D Exhibits Anti-Allergic Activity: A Promising Therapeutic Candidate” (International Journal of Molecular Sciences, 2024)
Square brackets hold non-standard residues; d marks the D form. Peptide text beside a SMILES is read from it.

Experiments:
BMMCs [1] = experiment: Ionomycin-induced degranulation of BMMCs; format: cell-based, mouse; details: BMMCs without IgE sensitization, 30 min pre-incubation, 1 μM ionomycin 15 min; two independent experiments
Procedure: (§1) Figure 5 Pro10-1D suppresses the activity of Lyn and Fyn kinases in vitro. (A) BMMCs (3.0 × 10^5 cells/well) were pre-incubated with Pro10-1D or PP2 for 30 min and then stimulated with 1 μM ionomycin or 300 nM thapsigargin for 15 min. (B,C) KinaseProfiler radiometric protein kinase assays were performed with Lyn and Fyn kinase. The protocols used for the kinase assay are detailed in the Section 4 “Materials and Methods”. (A–C) The data are presented as the mean ± SEM from two independent experiments. Statistical significance is indicated by an asterisk; ** p < 0.01.
(§2) RBL-2H3 cells (2.0 × 10^5 cells/well) were sensitized overnight with 20 ng/mL DNP-specific IgE in the culture medium. BMMCs (3.0 × 10^5 cells/well) were sensitized with 100 ng/mL DNP-specific IgE for 4 h in the culture medium. […] The reaction was stopped by the addition of 250 μL of a 0.1 M carbonate buffer, and absorbance was measured at 405 nm. The degranulation values were calculated as the ratio of β-hexosaminidase activity secreted into the supernatant to the total β-hexosaminidase activity from both the supernatant and cell extract.

BMMCs [2] = experiment: Thapsigargin-induced degranulation of BMMCs; format: cell-based, mouse; details: BMMCs without IgE sensitization, 30 min pre-incubation, 300 nM thapsigargin 15 min; two independent experiments
Procedure: as §1, §2

[3] = system: rat basophilic leukemia (RBL)-2H3 cells; experiment: Antigen-induced MC degranulation, β-hexosaminidase assay, RBL-2H3; format: cell-based; details: RBL-2H3 (2.0 × 10^5 cells/well), DNP-specific IgE 20 ng/mL overnight, Pro10-1D 30 min, then DNP-HSA 25 ng/mL 15 min, 37 °C, Siraganian buffer pH 7.2, absorbance 405 nm, three independent experiments in triplicate, read-out: IC50, inhibition of antigen-induced degranulation
Procedure: (§3) Figure 1 Pro10-1D inhibits IgE–Ag-induced degranulation in MCs. (A) RBL-2H3 cells and BMMCs were first sensitized with DNP-specific IgE and then treated with Pro10-1D or PP2 for 30 min, followed by the stimulation with DNP-HSA for 15 min. (B) IgE-sensitized RBL-2H3 cells were incubated with or without Pro10-1D for 30 min and then washed three times, followed by the stimulation with the antigen for 15 min. (C) The effects of Pro10-1D on cell viability were evaluated by incubating both RBL-2H3 cells and BMMCs with Pro10-1D for 4 h and measuring the absorbance at 450 nm using the CCK-8 kit. (A,B) The extent of degranulation from the MCs was determined by measuring the ratio of β-hexosaminidase activity released outside the cells to the total β-hexosaminidase activity. The data are presented as the mean ± SEM from three independent experiments, each performed in triplicate. […]
(§4) RBL-2H3 cells were obtained from the American Type Culture Collection (Manassas, VA, USA) and cultured in a complete minimal essential medium (MEM) supplemented with L-glutamine […], streptomycin (100 μg/mL), and 15% fetal bovine serum at 37 °C in a CO2-enriched environment. […] After 4 to 5 weeks of culture, the purity of BMMCs was assessed using flow cytometric analysis, focusing on FcεRIα and c-Kit expression as markers of mast cell maturation. […]

[4] = system: bone marrow-derived mast cells (BMMC cells); experiment: Antigen-induced MC degranulation, β-hexosaminidase assay, BMMCs; format: cell-based, mouse; details: BMMCs (3.0 × 10^5 cells/well), DNP-specific IgE 100 ng/mL 4 h, Pro10-1D 30 min, then DNP-HSA 50 ng/mL 15 min, 37 °C, Tyrode buffer pH 7.4, absorbance 405 nm, three independent experiments in triplicate, read-out: IC50, inhibition of antigen-induced degranulation
Procedure: as §3, §4

RBL-2H3 cells = experiment: Cell viability (CCK-8), RBL-2H3; format: cell-based, rat; details: RBL-2H3, 4 h, CCK-8, absorbance 450 nm, up to highest experimental concentration
Procedure: (§5) Figure 1 Pro10-1D inhibits IgE–Ag-induced degranulation in MCs. (A) RBL-2H3 cells and BMMCs were first sensitized with DNP-specific IgE and then treated with Pro10-1D or PP2 for 30 min, followed by the stimulation with DNP-HSA for 15 min. (B) IgE-sensitized RBL-2H3 cells were incubated with or without Pro10-1D for 30 min and then washed three times, followed by the stimulation with the antigen for 15 min. (C) The effects of Pro10-1D on cell viability were evaluated by incubating both RBL-2H3 cells and BMMCs with Pro10-1D for 4 h and measuring the absorbance at 450 nm using the CCK-8 kit. (A,B) The extent of degranulation from the MCs was determined by measuring the ratio of β-hexosaminidase activity released outside the cells to the total β-hexosaminidase activity. The data are presented as the mean ± SEM from three independent experiments, each performed in triplicate. Statistical significance is indicated by an asterisk; * p < 0.05, ** p < 0.01. PP2 is a general Src family kinase inhibitor.
(§6) RBL-2H3 cells (2.0 × 10^4 cells/well) were seeded in 96-well plates and incubated for 12 h, after which they were treated with Pro10-1D for 4 h. […] Cell viability was assessed using the Cell Counting Kit-8 (CCK-8) (Dojindo Laboratories, Kumamoto, Japan), following the manufacturer’s protocol. Absorbance was measured at 450 nm to determine cell viability.

BMMCs [5] = experiment: Cell viability (CCK-8), BMMCs; format: cell-based, mouse; details: 4 h, CCK-8, absorbance 450 nm, up to highest experimental concentration
Procedure: as §5, §6

Lyn = molecular target: T1, Lyn (Mus musculus, UniProt P25911); experiment: KinaseProfiler radiometric kinase assay, Lyn; format: biochemical; details: Km concentration for ATP, [γ-33P]-ATP, Poly (Glu, Tyr) 4:1, 0.1 mg/mL, Tris pH 7.5, 40 min, room temperature, two independent experiments
T1 construct: purchased Eurofins (KinaseProfiler service, Celle-Lévescault, France)
Procedure: as §1
(§7) A radiometric Lyn, Fyn kinase assay was conducted at Eurofins (Celle-Lévescault, France) using KinaseProfiler^TM. The assays were carried out at the Km concentration for ATP in dose response for each kinase. Briefly, the Lyn (mouse) assay was incubated using a mixture of 50 mM Tris pH 7.5, 0.1 mM EGTA, 0.1 mM Na3VO4, 0.1% β-Mercaptoethanol, 0.1 mg/mL Poly (Glu, Tyr) 4:1, 10 mM Magnesium acetate, and [γ^33P]-ATP. The Fyn (human) assay was incubated with a mixture of 50 mM Tris pH 7.5, 0.1 mM EGTA, 0.1 mM Na3VO4, 250 µM KVEKIGEGTYGVVYK (Cdc2 peptide), 10 mM Magnesium acetate, and [γ^33P]-ATP. The activity of Lyn and Fyn was initiated by the addition of the Mg/ATP mix, and the reactions were incubated for 40 min at room temperature. The reaction was halted by adding 0.5% phosphoric acid. […]

Fyn = molecular target: T2, Fyn (Homo sapiens, UniProt P06241); experiment: KinaseProfiler radiometric kinase assay, Fyn; format: biochemical; details: Km concentration for ATP, [γ-33P]-ATP, 250 µM Cdc2 peptide, Tris pH 7.5, 40 min, room temperature, two independent experiments
T2 construct: purchased Eurofins (KinaseProfiler service, Celle-Lévescault, France)
Procedure: as §1, §7

[6] = system: mouse macrophage RAW264.7 cells; details: cited from earlier work
Source text: In this study, we utilized Pro10-1D, a 10-meric peptide developed previously by adding a D-arginine residue at the N terminal of Pro9-3D, an enantiomeric form of Pro9-3 [17].

[7] = system: NF-κB and p38 MAPK in MCs; details: IgE-independent stimulation; cited from earlier work
Source text: MCs play a pivotal role in the late-phase reaction following early-phase activation triggered by Ag stimulation. During the late-phase response, MCs produce and secrete a range of cytokines and chemokines, which further intensify the inflammatory cascade initiated in the early response, leading to the recruitment and activation of various immune cells. The late-phase response of MC activation is instrumental in sustaining and exacerbating allergic symptoms, such as bronchoconstriction and edema. Suppressing MC-mediated late-phase responses, therefore, can help prevent the ...

[8] = system: T cells, B cells, and pDC cells; details: cited from earlier work
Source text: (§8) AMPs are recognized for their antibacterial activities as well as their immunomodulatory activities. The mechanism for their immunomodulatory activity includes the regulation of inflammatory or anti-inflammatory cytokines and the induction of chemoattractants. […] LL-37, produced by neutrophils, neutralize ...

TLR ligands = details: cited from earlier work
Source text: as §8

[9] = system: inflammatory cell influx into bronchoalveolar lavage fluid; details: allergic asthma, intranasal application; cited from earlier work
Source text: AMPs are small, naturally occurring antimicrobial peptides. In addition to their antimicrobial function, AMPs also play a role in regulating the host’s innate immune system. AMPs typically exert effects that inhibit the growth or induce the death of bacteria, fungi, and parasites. Unlike conventional antibiotics, most AMPs employ a distinct mode of action for their antibacterial activity, targeting the pathogen’s membrane. These unique mechanisms make AMPs promising candidates for the development of next-generation antibiotics. By August 2020, the antimicrobial peptide database c ...

E. coli-induced sepsis = details: cited from earlier work
Source text: as §8

[10] = system: TLR4-NFκB signaling pathway, LPS-TLR4/MD-2; details: competitive interference with the LPS-TLR4/MD-2 interaction; cited from earlier work
Source text: as §8

T1 sequence (P25911 whole entry): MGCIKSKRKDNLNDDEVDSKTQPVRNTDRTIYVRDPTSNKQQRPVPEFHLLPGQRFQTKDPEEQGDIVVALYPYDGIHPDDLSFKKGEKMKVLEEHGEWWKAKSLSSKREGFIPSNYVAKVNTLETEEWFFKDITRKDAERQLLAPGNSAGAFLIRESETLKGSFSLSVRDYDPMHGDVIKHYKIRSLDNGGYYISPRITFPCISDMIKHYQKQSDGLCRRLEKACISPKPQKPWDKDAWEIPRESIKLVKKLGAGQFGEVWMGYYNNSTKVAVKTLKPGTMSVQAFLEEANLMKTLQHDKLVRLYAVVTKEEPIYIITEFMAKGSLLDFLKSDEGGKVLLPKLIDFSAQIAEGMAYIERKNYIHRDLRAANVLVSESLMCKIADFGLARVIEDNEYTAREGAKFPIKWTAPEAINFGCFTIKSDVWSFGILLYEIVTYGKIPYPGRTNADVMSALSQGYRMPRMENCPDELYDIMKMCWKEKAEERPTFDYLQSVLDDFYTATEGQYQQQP
T2 sequence (P06241 whole entry): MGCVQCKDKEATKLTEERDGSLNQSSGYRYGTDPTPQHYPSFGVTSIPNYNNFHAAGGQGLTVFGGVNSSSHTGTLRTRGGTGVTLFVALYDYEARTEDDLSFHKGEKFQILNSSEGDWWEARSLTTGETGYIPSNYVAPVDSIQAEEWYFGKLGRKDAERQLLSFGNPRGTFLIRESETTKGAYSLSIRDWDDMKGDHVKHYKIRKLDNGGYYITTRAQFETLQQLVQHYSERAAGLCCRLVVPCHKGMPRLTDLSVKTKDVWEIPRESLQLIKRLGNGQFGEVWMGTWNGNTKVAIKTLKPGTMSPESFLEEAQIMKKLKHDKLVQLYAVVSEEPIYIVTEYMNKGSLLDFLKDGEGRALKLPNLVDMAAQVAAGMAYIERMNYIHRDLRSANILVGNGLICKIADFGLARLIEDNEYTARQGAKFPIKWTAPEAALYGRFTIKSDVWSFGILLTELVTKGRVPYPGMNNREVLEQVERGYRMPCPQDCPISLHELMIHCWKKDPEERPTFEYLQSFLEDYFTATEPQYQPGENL

CC(C)(C)n1nc(-c2ccc(Cl)cc2)c2c(N)ncnc21 [PP2, 4-amino-5-(4-chlorophenyl)-7-(dimethylethyl)pyrazolo[3,4-d]pyrimidine]
inhibition of ionomycin-induced degranulation (BMMCs [1]): much weaker inhibitory effect on thapsigargin or ionomycin-induced degranulation compared to its inhibitory effect on antigen-induced degranulation
inhibition of thapsigargin-induced degranulation (BMMCs [2]): much weaker inhibitory effect on thapsigargin or ionomycin-induced degranulation compared to its inhibitory effect on antigen-induced degranulation

CC[C@@H](C)[C@@H](NC(=O)[C@@H](C)NC(=O)[C@@H](CC(C)C)NC(=O)[C@@H](Cc1c[nH]c2ccccc12)NC(=O)[C@@H](CC(C)C)NC(=O)[C@@H](CCCNC(=N)N)NC(=O)[C@H](N)CCCNC(=N)N)C(=O)N[C@H](Cc1c[nH]c2ccccc12)C(=O)N[C@H](CCCNC(=N)N)C(=O)N[C@H](CCCNC(=N)N)C(N)=O [Pro10-1D] (H-[dR][dR][dL][dW][dL][dA][dI][dW][dR][dR]-NH2)
IC50 [3]: ~11.6 µM
IC50 [4]: ~2.7 µM
cellular toxicity / cell viability (RBL-2H3 cells): did not exhibit any signs of cellular toxicity, even at the highest experimental concentration
cellular toxicity / cell viability (BMMCs [5]): did not exhibit any signs of cellular toxicity, even at the highest experimental concentration
IC50 (Lyn): ~1.5 µM
IC50 (Fyn): ~22.6 µM
toxicity to RAW264.7 cells [6]: non-toxic

O=C(CO)NCCCOc1cccc(CN2CCCCC2)c1 [roxatidine]
release of pro-inflammatory cytokines; phosphorylation of NF-κB and p38 MAPK [7]: attenuate the release of pro-inflammatory cytokines by inhibiting the phosphorylation of NF-κB and p38 MAPK

LL-37
IL-10 expression [8]: induces IL-10 expression
effect on pro-inflammatory activity of TLR ligands (TLR ligands): neutralizes the pro-inflammatory activity of TLR ligands

hBD2: human β-defensin-2 (GIGDPVTCLKSGAICHPVFCPRRYKQIGTCGLPGTKCCKKP; UniProt O15263 24-64, looked up)
inflammatory cell influx into bronchoalveolar lavage fluid [9]: reduce inflammatory cell influx into bronchoalveolar lavage fluid

papiliocin
effect on E. coli-induced sepsis (E. coli-induced sepsis): alleviates the impact of E. coli-induced sepsis
inhibition of TLR4-NFκB signaling pathway [10]: inhibiting the TLR4-NFκB signaling pathway
